Measured values from patent US20250051277A1, “DELIVERY OF THERAPEUTIC ALKALOID COMPOUNDS” (Sensorium Therapeutics, Inc., priority 2021, published 2025).
Like-named read-outs stand apart in the source and are kept apart here.

Tests used:
[1] = 10 μM
[2] = 10 μM; remark: listed apart in the source

Row | Compound | Prodrug (%) remaining, Rat Plasma ([1]; 0 h) [%] | Prodrug (%) remaining, Rat Plasma ([1]; 10 min) [%] | Prodrug (%) remaining, Rat Plasma ([1]; 0.5 h) [%] | Prodrug (%) remaining, Rat Plasma ([1]; 1 h) [%] | Prodrug (%) remaining, Rat Plasma ([1]; 2 h) [%] | Prodrug (%) remaining, Rat Plasma ([1]; 4 h) [%] | Prodrug (%) remaining, Human Plasma ([2]; 0 h) [%] | Prodrug (%) remaining, Human Plasma ([2]; 10 min) [%] | Prodrug (%) remaining, Human Plasma ([2]; 0.5 h) [%] | Prodrug (%) remaining, Human Plasma ([2]; 1 h) [%] | Prodrug (%) remaining, Human Plasma ([2]; 2 h) [%] | Prodrug (%) remaining, Human Plasma ([2]; 4 h) [%]
1 | CCC(C)C(=O)OC1=C[C@@H]2N(C)CC[C@]2(c2ccc(OC)c(OC)c2)CC1 (stereo partly drawn) [Compound 425, (3aS,7aS)-3a-(3,4-dimethoxyphenyl)-1-methyl-2,3,3a,4,5,7a-hexahydro-1H-indol-6-yl2-methylbutanoate] | 100.0 | 4.4 | 0.1 | 0.0 | 0.0 | 0.0 | 100.0 | 6.5 | 4.8 | 4.0 | 3.0 | 1.9
2 | COc1ccc([C@@]23CCC(OC(=O)CCN)=C[C@@H]2N(C)CC3)cc1OC [Compound 397, (3aS,7aS)-3a-(3,4-dimethoxyphenyl)-1-methyl-2,3,3a,4,5,7a-hexahydro-1H-indol-6-yl3-aminopropanoate] | 100.0 | 10.5 | 0.5 | 0.1 | 0.1 | 0.1 | 100.0 | 2.2 | 0.5 | 0.1 | 0.2 | 0.0
3 | COCCCCC(=O)OC1=C[C@@H]2N(C)CC[C@]2(c2ccc(OC)c(OC)c2)CC1 [Compound 404, (3aS,7aS)-3a-(3,4-dimethoxyphenyl)-1-methyl-2,3,3a,4,5,7a-hexahydro-1H-indol-6-yl5-methoxypentanoate] | 100.0 | 0.3 | 0.3 | 0.3 | 0.3 | 0.2 | 100.0 | 22.9 | 11.5 | 7.6 | 3.8 | 1.6
4 | COc1ccc([C@@]23CCC(OC(=O)CC(C)(C)C)=C[C@@H]2N(C)CC3)cc1OC [Compound 431, (3aS,7aS)-3a-(3,4-dimethoxyphenyl)-1-methyl-2,3,3a,4,5,7a-hexahydro-1H-indol-6-yl3,3-dimethylbutanoate] | 100.0 | 74.5 | 45.7 | 16.5 | 2.3 | 0.2 | 100.0 | 82.1 | 69.0 | 62.8 | 52.6 | 37.4
5 | CCCC(CC)CC(=O)OC1=C[C@@H]2N(C)CC[C@]2(c2ccc(OC)c(OC)c2)CC1 (stereo partly drawn) [Compound 398, (3aS,7aS)-3a-(3,4-dimethoxyphenyl)-1-methyl-2,3,3a,4,5,7a-hexahydro-1H-indol-6-yl3-ethylhexanoate] | 100.0 | 2.8 | 0.7 | 0.1 | 0.0 | 0.0 | 100.0 | 96.4 | 85.0 | 72.4 | 51.6 | 25.5
6 | CCCC(CCC)C(=O)OC1=C[C@@H]2N(C)CC[C@]2(c2ccc(OC)c(OC)c2)CC1 [Compound 427, (3aS,7aS)-3a-(3,4-dimethoxyphenyl)-1-methyl-2,3,3a,4,5,7a-hexahydro-1H-indol-6-yl2-propylpentanoate] | 100.0 | 93.6 | 73.4 | 43.9 | 16.0 | 2.3 | 100.0 | >99 | 96.6 | 96.9 | 95.5 | 91.2
7 | CCCC(C)(C)C(=O)OC1=C[C@@H]2N(C)CC[C@]2(c2ccc(OC)c(OC)c2)CC1 [Compound 429, (3aS,7aS)-3a-(3,4-dimethoxyphenyl)-1-methyl-2,3,3a,4,5,7a-hexahydro-1H-indol-6-yl2,2-dimethylpentanoate] | 100.0 | 90.4 | 83.9 | 71.9 | 50.8 | 26.2 | 100.0 | >99 | 96.3 | 95.3 | 91.8 | 84.6
8 | COc1ccc([C@@]23CCC(OC(=O)CCC(C)C)=C[C@@H]2N(C)CC3)cc1OC [Compound 399, (3aS,7aS)-3a-(3,4-dimethoxyphenyl)-1-methyl-2,3,3a,4,5,7a-hexahydro-1H-indol-6-yl4-methylpentanoate] | 100.0 | 0.0 | 0.0 | 0.0 | 0.0 | 0.0 | 100.0 | 5.6 | 1.1 | 0.5 | 0.3 | 0.2
